Experimental data as given in patent US12391657B2, “Small molecules that bind and/or modulate differentforms of tau oligomers” (The Board of Regents of the University of Texas System, priority 2019, dated 2025).
“Also recorded” adds a separate entry of the source.

Assays:
[1] = cited from earlier work
[2] = in vivo; cited from earlier work
[3] = target: T1, recombinant tau oligomers (TauO) (Homo sapiens, UniProt P10636); test: Direct ELISA of recombinant tau oligomers with and without compounds; type: biochemical; details: increased concentration of curcumin
T1 construct: made in house
T1 sequence (P10636 1-441 isoform P10636-8): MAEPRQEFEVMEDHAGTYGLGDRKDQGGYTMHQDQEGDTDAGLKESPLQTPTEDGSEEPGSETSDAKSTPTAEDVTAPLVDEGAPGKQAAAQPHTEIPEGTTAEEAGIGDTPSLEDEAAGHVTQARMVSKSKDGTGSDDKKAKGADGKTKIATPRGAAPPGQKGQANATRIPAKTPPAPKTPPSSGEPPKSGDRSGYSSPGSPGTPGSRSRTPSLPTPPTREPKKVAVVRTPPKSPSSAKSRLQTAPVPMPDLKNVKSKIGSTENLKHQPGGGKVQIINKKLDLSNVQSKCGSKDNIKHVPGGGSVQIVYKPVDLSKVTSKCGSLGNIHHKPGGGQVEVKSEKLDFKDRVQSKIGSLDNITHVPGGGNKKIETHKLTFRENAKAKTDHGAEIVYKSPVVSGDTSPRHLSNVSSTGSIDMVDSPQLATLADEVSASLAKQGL
Procedure: ELISA assay was conducted as previously described (Lasagna-Reeves, Castillo-Carranza et al. 2010). […] After washing three times with TBS-T, plates were blocked for 1 hour at 37° C. with 120 μl of 10% non-fat milk in TBS-T. Plates were then washed three times with TBS-T, before probing with 100 μL of primary antibodies for 1 hour at 37° C., T22 (diluted 1:250 in 5% non-fat milk in TBS-T) and Tau 5 (diluted 1:10000 in 5% non-fat milk in TBS-T), respectively . Plates were then washed three times with TBS-T, and probed with 100 μL of horseradish peroxidase-conjugated anti-rabbit or anti-mouse IgG (Promega, Madison, WI) (diluted 1:10000 in 5% non-fat milk in TBS-T). After 1 hour of incubation at 37° C., plates were washed three times with TBS-T and developed with 3, 3, 5, 5-tetramethylbenzidine (TMB-lcomponent substrate, KPL, Gaithersburg, MD). The reaction was stopped by using 100 μL 1M HCl and samples were read at 450 nm using POLARstar OMEGA plate reader. All measurements were performed in triplicate
Compounds were dissolved in ETOH 75%/DMSO (5:1) at a final concentration of 5 mM and diluted in 1× PBS or ddH2O for incubation or toxicity assay (final concentration 5 μM). […]
ELISA assay was conducted as previously described (Lasagna-Reeves, Castillo-Carranza et al. 2010). […] The reaction was stopped using 100 μl of 1M HCl and absorbance was read at 450 nm using POLARstar OMEGA plate reader. […]

[4] = system: SH-SY5Y human neuroblastoma cells; test: MTT viability of SH-SY5Y cells exposed to TauO pre-incubated with compound; type: cell-based; details: 2 μM TauO; curcumin final concentration 10 μM
Procedure: Human neuroblastoma SH-SY5Y cells were maintained in Dulbecco's modified Eagle's medium (DMEM) and grown to confluence in 96-well plates. […] Cells viability was corrected by the vehicle background. All measurements were performed in triplicate. The cytotoxic effect was determined using 3-(4,5-dimethylthiazol-2-yl)-2,5-diphenyltetrazolium bromide (MTT) assay for assessing cell viability following manufacturers' instructions. Optical density (OD) was measured at 490 nm with POLARstar OMEGA plate reader (BMG Labtechnologies). Cell viability was calculated as the percentage of the OD value of treated cells compared with untreated controls, according to the following equation: Viability=(OD SAMPLE/OD CONTROL)×100. […]
Human neuroblastoma SH-SY5Y cells were maintained in Dulbecco's modified Eagle's medium (DMEM) and grown to confluence in 96-well plates. […] The cytotoxic effect was determined using 3-(4,5-dimethylthiazol-2-yl)-2,5-diphenyltetrazolium bromide (MTT) assay for assessing cell viability following manufacturer's instructions. Optical density (OD) was measured at 490 nm with POLARstar OMEGA plate reader (BMG Labtechnologies). Cell viability was calculated as the percentage of the OD value of treated cells compared with untreated controls, according to the following equation: Viability=(OD SAMPLE/OD CONTROL)×100. […]

[5] = target: T1, recombinant tau oligomers (TauO); test: Western blot of recombinant tau oligomers with and without compounds; type: biochemical; details: curcumin 5× and 10×, oligomerization conditions
Procedure: Pre-cast NuPAGE 4-12% Bis-Tris Gels for SDS-PAGE (Introvigen) were loaded with 3 μg of recombinant tau for each sample per well along with molecular weight marker. After being separated by electrophoresis, proteins were transferred to nitrocellulose membranes. Membranes were then blocked with 10% nonfat milk in Tris-buffered saline with very low tween 0.01% (TBS-T) overnight at 4° C. The next day membranes were probed with T22 (1:250) for tau oligomers and tau5 (1:10000) for total tau, diluted in 5% nonfat milk for 1 hour at RT. Membranes were then incubated with horseradish peroxidase-conjugated IgG anti-rabbit (1:10000) and anti-mouse (1:10000) secondary antibodies to detect, T22 and Tau5, respectively. ECL plus (GE Healthcare) was used for signal detection. Densitometric analysis of each band was quantified using Image J and analyzed by one-way ANOVA.
Recombinant tau protein (tau-441 (2N4R) MW 45.9 kDa) was expressed and purified as described (Margittai and Langen 2004, Margittai and Langen 2006). The tau pellet was treated with 8M urea followed by overnight dialysis against 1× phosphate-buffered saline (PBS) pH 7.4. Tau concentration was measured using bicinchoninic acid protein assay (Micro BCA kit, Pierce) and normalized to 1 mg/ml by adding 1× PBS. Aliquots of tau monomer in PBS were stored at −20° C. […]

Compound: COc1cc(/C=C/C(=O)CC(=O)/C=C/c2ccc(O)c(OC)c2)ccc1O [curcumin]
- solubility in aqueous media [1]: poor solubility in aqueous buffers
- bioavailability [2]: low brain bioavailability following oral administration
- tau oligomer level, T22 immunoreactivity, direct ELISA [3]: significant decrease in T22 immunoreactivity; also recorded: significant decrease in oligomers
- viability of SH-SY5Y cells exposed to TauO pre-incubated with curcumin [4]: significantly higher cells viability when compared to TauO alone; also recorded: rescued cells from TauO-induced toxicity
- aggregation state of preformed tau oligomers, Western blot (T22, Tau 5, Tau 13) [5]: promoting the formation of larger tau aggregates
- aggregation state of preformed tau oligomers, Western blot (T22, Tau 5, Tau 13) ([5]; listed as Curcumin): alters the aggregation states of preformed tau oligomers
